A short description of data set [1]: Pharmacokinetic study in C57BL/6 mice after oral and intravenous dosing, blood levels by LC-MS/MS. Particulars: for T 1/2 (apparent terminal half-life) / Cmax / half-life / AUC(0-inf) / clearance / Vd: mean ± SD of five mice; for Cmax: read-out: C Max (maximum blood concentration); for half-life: read-out: T 1/2 (apparent terminal half-life); for bioavailability: read-out: BA (oral bioavailability); for AUC(0-inf) / clearance / Vd: mouse; for AUC(0-inf): read-out: AUC0–∞ (total exposure) (converted); for clearance: read-out: CL (blood clearance); for Vd: read-out: Vss (volume of distribution). The class given is in vivo. The procedure: Male and female C57BL/6 mice (20–30 g) were obtained from the University of Cape Town Medical School Animal Unit. The mice were housed in ventilated cages at room temperature (approximately 22°C) with a constant supply of food and water and were monitored twice daily. The study was authorized by the University of Cape Town's Faculty of Health Science Animal Research Ethics Committee before its commencement (Reference number 012/020). All the work was performed according to the guidelines established by Austin and colleagues.
The compounds (Figure 1) were dissolved in DMSO and diluted further with phosphate buffered saline (PBS) to give a final DMSO concentration of 1%.
Comprehensive PK studies were performed on groups of five animals to determine the pharmacokinetic properties of the test compounds. This involved the oral dosing (200 μL) of 10-week-old C57BL/6 male mice at 20 mg/kg and intravenous dosing (100 μL) under anesthesia at 4 mg/kg via the dorsal penile vein. For the oral dosage a gavage needle was used for the administration of test compounds directly into the lower esophagus or stomach. Blood samples (approximately 30 μL) were collected serially by needle prick on the tail vein near to the tip of the tail at 0, 0.17, 0.5, 1, 2, 3, 5, 7, and 9 hours after dosing. Lithium-heparin-coated tubes were used to collect the blood samples. The collected blood samples were placed on ice immediately after sampling and were frozen at −80°C until analyzed.
The blood samples were brought to room temperature and then mixed by vortexing to ensure homogeneity. Twenty microliters of blood was mixed with 50 μL Milli-Q water and 150 μL acetonitrile. The sample was vortexed for 15 seconds, sonicated for 10 minutes, and centrifuged at 13000 ×g for 5 minutes. The supernatant was transferred to a flat-bottom glass insert and placed in a glass vial for analysis.
The liquid chromatography (LC) system employed was an ultrafast liquid chromatography (UFLC) system (Shimadzu) and the separation of the compounds was performed on a Phenomenex, Luna 5 μm PFP(2), 100 Å, and 50 mm × 2 mm analytical column. For method development, the compounds were prepared at 1 mg/mL stock in methanol and were further diluted with 50% acetonitrile: 0.1% formic acid to make a final concentration of 1 μg/mL. Analyst software version 1.5.2 (AB Sciex) was employed for data acquisition, peak-area integration, and quantitation of compounds in blood samples.
The mobile phase A consisted of 0.1% formic acid in water (v/v) and mobile phase B consisted of acetonitrile. Samples were maintained at 4°C until injection. The flow rate was set at 500 μL/min and the temperature of the column was maintained at 40°C. For the separation of the compounds the mobile phase was increased from 5% to 95% B over 2 minutes and returned to 5% B within 0.1 minutes and then equilibrated for 3 minutes. Calibration curves were derived in each analytical run in duplicate and were employed to extrapolate the concentration of the compounds in the blood samples.
The MS system consisted of an AB Sciex 3200 Q-Trap mass spectrometer which was operated at unit resolution in the multiple reaction monitoring (MRM) mode. The calibration range for all the compounds was between 7.8 and 1000 ng/mL and the accuracy (%Nom) for the calibration curves was between 90.31 and 104.0%.
Noncompartmental analysis was performed on each individual set of data using PK Solutions 2.0 Pharmacokinetic Analysis Software (Summit Research Services, Montrose, USA), which uses an automated Excel-based program. […]

Data set [2] deals with human Ether-à-go-go-Related Gene (hERG). The arrangement: method as in PMID 23189922. Particulars: result in words; cited from earlier work.
Details of data set [3]: method as in PMID 23189922. Conditions: result in words; cited from earlier work.
For a further data set, the system named is P. berghei. The arrangement: method as in PMID 23189922. Particulars: result in words; cited from earlier work.
The conditions of data set [4]: male Sprague Dawley rats, cited from earlier work.
[5] abbreviates: male, C57BL/6, mouse, whole blood, iv, 4 mg/kg, IV, 4 mg/kg, blood.
Where [6] appears, read: male, C57BL/6, mouse, whole blood, oral, oral 20 mg/kg vs IV 4 mg/kg.
The mark [7] stands for this setting: male, C57BL/6, mouse, whole blood, po, 20 mg/kg, oral, 20 mg/kg, blood.
[8] abbreviates: male, C57BL/6, mouse, whole blood, po, 20 mg/kg, oral, 20 mg/kg, blood, read-out: T Max.
[9] abbreviates: male, whole blood, IV, 4 mg/kg, blood.
Setting [10] is: male, whole blood, oral, 20 mg/kg, blood.
The mark [11] stands for this setting: oral, 20 mg/kg, blood, 20 mg/kg.

Read-outs that look alike come from different tables or passages of the source. Bounds are passed on as bounds.

With `Nc1ncc(-c2ccc(C(=O)N3CCOCC3)cc2)cc1-c1ccc(C(F)(F)F)cc1` [Compound 1], the “T 1/2 (apparent terminal half-life)” value is 0.87 ± 0.03 h in data set [1] (IV, 4 mg/kg, blood) and 2.53 ± 0.1 h in data set [1] (oral, 20 mg/kg, blood). In addition, the Cmax in data set [1] (setting [5]) was 2110 ± 60 nM; in data set [1] (setting [7]), 1900 nM; in data set [1] (setting [11]), 1920 ± 30 nM. In addition, the half-life in data set [1] (setting [5]) was in the range of 0.68 to 0.87 h; in data set [1] (setting [7]) it was 2.5 to 3 h. Besides, the bioavailability in data set [1] (setting [6]) worked out at 69 ± 19%. Moreover, the Tmax in data set [1] (setting [8]) is at most 1 h. Further, the AUC(0-inf) in data set [1] (setting [9]) was 1.72 µM·h; in data set [1] (setting [10]), 5.99 µM·h. Besides, in data set [1] (male, whole blood, IV, 4 mg/kg), the clearance was found to be 83.6 ± 12 mL/min/kg. For the same compound, the Vd in data set [1] (male, whole blood, IV, 4 mg/kg) turned out to be 9.51 ± 1 L/kg. In addition, the “T Max” value in data set [1] (oral, 20 mg/kg, blood) is 1 h. Further, the “hERG activity compared to the parent compound 3” value in data set [2] is “reduced hERG activity”. Besides, the metabolic stability entry in data set [3] was “showed metabolic stability”. For the same compound, the “activity in a P. berghei infected mouse model” value in the data set with P. berghei was “displayed activity”.
In the case of `CNS(=O)(=O)c1ccc(-c2cnc(N)c(-c3ccc(C(F)(F)F)nc3)c2)cc1` [Compound 2], the “T 1/2 (apparent terminal half-life)” value in data set [1] (IV, 4 mg/kg, blood) is 0.68 ± 0.6 h; in data set [1] (oral, 20 mg/kg, blood), 2.96 ± 0.2 h. For the same compound, the Cmax was determined as 960 ± 60 nM in data set [1] (setting [5]), 3300 nM in data set [1] (setting [7]) and 3340 nM in data set [1] (setting [11]). The half-life in data set [1] (setting [5]) lay within 0.68 to 0.87 h; in data set [1] (setting [7]), 2.5 to 3 h. Moreover, the bioavailability in data set [1] (setting [6]) came out at 59.7%. Moreover, the Tmax is at most 1 h in data set [1] (setting [8]) and at most 0.5 h in data set [1] (male, C57BL/6, mouse, whole blood, po, 20 mg/kg, oral, 20 mg/kg, blood, read-out: time to maximum concentration). Besides, the AUC(0-inf) in data set [1] (setting [9]) was 1.75 µM·h; in data set [1] (setting [10]), 5.23 µM·h. In data set [1] (male, whole blood, IV, 4 mg/kg), the clearance is 92.6 ± 19 mL/min/kg. Besides, the Vd in data set [1] (male, whole blood, IV, 4 mg/kg) is 27 ± 1.3 L/kg. In addition, the “BA (oral bioavailability)” value in data set [1] (oral 20 mg/kg vs IV 4 mg/kg) was 60 ± 5%. For the same compound, the “hERG activity compared to the parent compound 3” value in data set [2] is “reduced hERG activity”. Also, the metabolic stability result in data set [3] is “showed metabolic stability”. For the same compound, the “activity in a P. berghei infected mouse model” value in the data set on P. berghei was “displayed activity”.
Turning to `COc1ccc(-c2cc(-c3ccc(S(C)(=O)=O)cc3)cnc2N)cn1` [Compound 3], the “apparent t 1/2” value was 8 h in data set [4] (dosed intravenously) and 6.5 h in data set [4] (dosed orally). Further, the values for the AUC in data set [4] (intravenous) and in data set [4] (oral) were 789 µM·min and 6880 µM·min, respectively. Also, the clearance rate in data set [4] is on record as 18.3 mL/min/kg. Also, the oral bioavailability in data set [4] is on record as over 100%.

For orientation: bioavailability means dose-corrected exposure relative to a reference, in per cent. As a reminder, the AUC is the area under the concentration-time curve, a measure of exposure.

The record behind these values is PMC4393935, “A Pharmacokinetic Study of Antimalarial 3,5-Diaryl-2-aminopyridine Derivatives” (Malaria Research and Treatment, 2015).
